Assay results from patent publication US12016682B2, “In-vivo monitoring of molecular targets” (The Regents of the University Of California, priority 2013, dated 2024).
{C7MB} = methylene blue on (CH2)7 linker; {C11SH} = thiol on (CH2)11 linker; {MB} = methylene blue redox label; {C6SH} = thiol on (CH2)6 linker

How the values were obtained:
[1] = Cocaine/procaine binding aptamer sensor step response to target in buffer and whole blood (SWV)
[2] = test system: DOX probe; experiment: DOX probe specificity characterization against off-target chemotherapy agents; format: binding; settings: 1,000× greater concentrations (1 mM vs DOX 1 μM), 1×SSC
Description: Probes were characterized in terms of affinity, specificity and kinetic response. […] At each concentration, the signal was permitted to equilibrate and then ten subsequent readings were obtained from two separate electrodes and averaged as the reported values. […] Voltammograms were taken in immediate succession to provide maximal temporal resolution. Dose-response curves were obtained by fitting data to a one-site binding model, and kinetic-response curves were obtained by fitting data to a one-phase association and dissociation model.

[3] = DOX probe characterization: dose-response (affinity) and kinetic response by square-wave voltammetry; format: binding
Description: Aptamer probes were synthesized with the following sequences: DOX-probe: 5′-HS—(CH2)6-ACCATCTGTGTAAGGGGTAAGGGGTGGT-MB-3′ (SEQ ID NO: 1), Kanamycin-probe: 5′-HS—(CH2)6-GGGACTTGGTTTAGGTAATGAGTCCC-MB-3′ (SEQ ID NO: 2). DOX-probe is a truncated form of an anthracycline aptamer. A region of the aptamer suspected of supporting a hairpin structure was selected, with an apparent active binding site in the base. The stem was engineered to enable effective signal transduction through stabilization of the folded state. The kanamycin probe was adapted from that described in Rowe et al. Analytical chemistry 82, 7090-5 (2010). Each probe was thiolated at the 5′-end to facilitate self-assembly on the gold working electrodes, and conjugated with an MB redox label at the 3′-end to enable target binding-induced charge transfer modulation. Prior to probe immobilization, the gold electrodes were first cleaned via cyclic voltammetry, with twelve potential sweeps ranging from −0.8 to 0.9 V (with respect to the platinum reference electrode) applied at 0.1 V·s^−1 with a sample interval of 0.001 V and 10 μA sensitivity in 50 mM H2SO4. Subsequently, the chamber was flushed with DI water, followed by the addition of probe solution. The probe solution was prepared by adding 2 μL of 10 mM tris(2-carboxyethyl)phosphine (TCEP) to 1 μL of 200 μM probe stock and incubating at room temperature for 60 minutes to enable cleavage of disulphide bonds. The solution was then diluted to 2 μM in 1× saline-sodium citrate (SSC) buffer for effective self-assembly. The chip was incubated with probe solution for 1 hour at room temperature, permitting the thiolated aptamer to form a monolayer on the gold electrode surface. The chamber was then flushed with 5 mL DI water for 5 minutes, and the remaining electrode area was incubated for two hours in passivation solution, consisting of 1 μL of stock 6-mercaptohexanol diluted to 3 mM in DI water. The chamber was flushed again with DI water and filled with 1×SSC, after which the device was stored at 4° C. until use.
Electrochemical measurements were conducted with an electrochemical analyzer (730B, CH Instruments, Austin, TX). The chip was connected via 8-pin card-edge connector and subjected to SWV scans. Working electrodes were scanned in continuous succession with an average scan period of 8 seconds. To accommodate potential shifts due to the non-ideal on-chip pseudo-reference electrodes, a 400 mV potential range was scanned to reliably capture the MB redox peak. For optimal frequency determination for the KDM, frequency-sweep scans were performed from 5 Hz to 800 Hz, with amplitude of 25 mV. A custom peak-fitting script was created to fit the SWV measurements with a Gaussian curve on a hyperbolic baseline. Peak currents were then normalized to a baseline peak current to generate signal gain. Unless otherwise noted, all reported gains were obtained via KDM with the difference divided average of gains from 7.5 Hz and 75 Hz signals.
Probes were characterized in terms of affinity, specificity and kinetic response. For affinity measurements, a dose-response curve was obtained by subjecting the probe to DOX concentrations (for the DOX-probe) ranging from 50 nM to 10 μM in 1×SSC at a flow-rate of 1 mL·h^−1. At each concentration, the signal was permitted to equilibrate and then ten subsequent readings were obtained from two separate electrodes and averaged as the reported values. The same procedure was applied for specificity characterization, where DOX was injected at 1 μM while off-target reagents mitomycin-C (MTC), ifosfamide (Ifex), Mesna, dacarbazine (DTIC) or cisplatin (CDDP) were injected at 1 mM. […] Voltammograms were taken in immediate succession to provide maximal temporal resolution. Dose-response curves were obtained by fitting data to a one-site binding model, and kinetic-response curves were obtained by fitting data to a one-phase association and dissociation model. […]

[4] = stated, not measured here; cited from earlier work
[5] = in vivo; settings: male, Sprague-Dawley, rat, iv
Method: A calibration curve was obtained (FIG. 5), then doses of 32, 64 and 96 mg·kg^−1 were serially injected, followed by a baseline control.

[6] = biphasic, cited from earlier work
[7] = Continuous real-time MEDIC measurement of in vivo DOX concentration in live rats; settings: male, Sprague-Dawley, rat, 1 mg·m^−2, alpha-phase half-life t1/2^α
[8] = male, Sprague-Dawley, rat, in vivo
[9] = humans; cited from earlier work
[10] = after a 5 minute pulse of 600 nM DOX

Compound “5′-HS—(CH2)11-AGACAAGGAAAATCCTTCAATGAAGTGGGTCG-(CH2)7-MB-3′ (AGACAAGGAAAATCCTTCAATGAAGTGGGTCG; DNA, 5' {C11SH}, 3' {C7MB}, backbone and methylation of C not given here) [cocaine/procaine binding aptamer, DNA aptamer thiolated on the 5′-end, methylene blue redox label at the 3′-end]” has a Kd [1] of ~190 µM, a koff ([1]; 128 μM target in 1×SSC buffer) of ~0.031 s⁻¹ and a kon ([1]; 128 μM target in 1×SSC buffer) of ~160 s⁻¹ M⁻¹. The signal gain ([1]; 128 μM target in 1×SSC buffer, before blood exposure) was 60%, the signal gain ([1]; 128 μM target in buffer after whole blood exposure) was ~20% and the signal gain ([1]; 128 μM target in whole blood, after ~1 h whole blood exposure at room temperature) was ~10%. For the same compound, the “affinity for its target at 37° C.” value ([1]; 37° C.) was “loses affinity for its target” and the “performance at room temperature” value ([1]; room temperature) was “performs well”.
In the case of `N.N.[Cl][Pt][Cl]` [cisplatin], the “sensor response to off-target drug” value [2] is reported as “did not respond”.
With `O=P1(NCCCl)OCCCN1CCCl` (centres unmarked) [ifosfamide] the “sensor response to off-target drug” value [2] was “did not respond”.
In the case of `CO[C@@]12[C@H](COC(N)=O)C3=C(C(=O)C(C)=C(N)C3=O)N1C[C@@H]1N[C@@H]12` [mitomycin-C], the “sensor response to off-target drug” value [2] is reported as “did not respond”.
For “5′-HS—(CH2)6-ACCATCTGTGTAAGGGGTAAGGGGTGGT-MB-3′ (ACCATCTGTGTAAGGGGTAAGGGGTGGT; DNA, 5' {C6SH}, 3' {MB}, backbone and methylation of C not given here) [DOX probe, truncated form of an anthracycline DNA aptamer, thiolated at the 5′-end, MB redox label at the 3′-end]”, the “time to reach 90% saturation” value ([3]; DOX pulse) was ≤ 45 s, the “time to return to 10% of baseline” value ([3]; after DOX pulse) was ≤ 100 s and the koff [3, 10] was 1.35 ± 0.05 min⁻¹. The kon [3, 10] was 3.0 ± 0.35 µM⁻¹ min⁻¹, the dynamic range ([3]; in buffer) was 0.1 to 10 µM and the “limit of detection (LOD)” value ([3]; in buffer) was 10 nM. It also gave a Kd ([3]; signal gain fitted to a Langmuir isotherm, DOX 50 nM to 10 μM in 1×SSC, read-out: apparent Kd) of 824 nM.
For `NC[C@H]1O[C@H](O[C@H]2[C@H](O)[C@@H](O[C@H]3O[C@H](CO)[C@@H](O)[C@H](N)[C@H]3O)[C@H](N)C[C@@H]2N)[C@H](O)[C@@H](O)[C@@H]1O` [kanamycin], the “beta phase t1/2^β” value [4] is given as 2 to 3 h, the half-life ([5]; 32 mg/kg) is given as 7.2 min and the half-life ([5]; 64 mg/kg) is given as 10 min. It also gave a half-life ([5]; 96 mg/kg) of 9 min.
For `C[C@@H]1[C@H](O)[C@@H](C)/C=C/C=C/C=C/C=C/C=C/C=C/C=C/[C@H](O[C@@H]2O[C@H](C)[C@@H](O)[C@H](N)[C@@H]2O)C[C@@H]2O[C@](O)(C[C@@H](O)C[C@@H](O)[C@H](O)CC[C@@H](O)C[C@@H](O)CC(=O)O[C@H]1C)C[C@H](O)[C@H]2C(=O)O` [Amphotericin B], the “half-life, initial phase” value ([6]; initial phase) is listed as 24 h and the “half-life, second phase” value ([6]; second phase) is listed as 15 days.
In the case of `O=S(=O)(O)CCS` [mesna], the “sensor response to off-target drug” value [2] is reported as “did not respond”.
With `COc1cccc2c1C(=O)c1c(O)c3c(c(O)c1C2=O)C[C@@](O)(C(=O)CO)C[C@@H]3O[C@H]1C[C@H](N)[C@H](O)[C@H](C)O1` [DOX, doxorubicin] the half-life ([7]; first of two injections of 1 mg·m^−2) was 10.7 ± 0.5 min, the half-life ([7]; second of two injections of 1 mg·m^−2) was 10.8 ± 1 min and the “Pearson correlation coefficient of t1/2^α as a function of body surface area” value [8] was −0.73. For the same compound, the “alpha-phase plasma clearance time” value [9] was 6 to 26 min.
